Test results from ChEMBL document CHEMBL1777812, “New 1,4-di-N-oxide-quinoxaline-2-ylmethylene isonicotinic acid hydrazide derivatives as anti-Mycobacterium tuberculosis agents” (Bioorg Med Chem Lett, 2011).

Legend:
[1] = system: Mycobacterium tuberculosis; assay: Antimycobacterial activity against Mycobacterium tuberculosis H37Rv ATCC 27294 by microplate Alamar blue assay; assay type: functional, organism-based
[2] = Cytotoxicity against african green monkey Vero cells after 72 hrs by Cell titer Glo luminescent cell viability assay; assay type: cell-based; conditions: chlorocebus sabaeus
[3] = Selectivity index, Ratio of CC50 for african green monkey Vero cells to IC90 for Mycobacterium tuberculosis H37Rv ATCC 27294; assay type: toxicity, cell-based

| Compound | IC50 [1] | IC90 [1] | CC50 at 72 h [2] | selectivity ratio [3] |
| --- | --- | --- | --- | --- |
| COc1ccc2c(c1)[n+]([O-])c(C(=O)NCc1ccccc1)c(C)[n+]2[O-] | 18.9 µM | 36.4 µM |  |  |
| Cc1c(C(=O)NCc2ccccc2)[n+]([O-])c2cc(Cl)ccc2[n+]1[O-] | 1.1 µM | 1.25 µM | > 291 µM | > 231 |
| Cc1ccc2c(c1)[n+]([O-])c(C(=O)NCc1ccccc1)c(C)[n+]2[O-] | 8.35 µM | 13 µM | > 309 µM | > 23.8 |
| Cc1c(C(=O)NCc2ccccc2)[n+]([O-])c2cc(C(F)(F)F)ccc2[n+]1[O-] | < 0.81 µM | 1.07 µM | > 265 µM | > 246 |
| Cc1c(C(=O)NCc2ccccc2)[n+]([O-])c2cc(F)ccc2[n+]1[O-] | 2.83 µM | 4.65 µM | > 306 µM | > 65.7 |
| Cc1c(C(=O)NCc2ccccc2)[n+]([O-])c2ccccc2[n+]1[O-] | 4.91 µM | 8.42 µM | > 323 µM | > 38.4 |
| Cc1cc2c(cc1C)[n+]([O-])c(C(=O)NCc1ccccc1)c(C)[n+]2[O-] | 90.8 µM | 296 µM |  |  |
| Cc1c(/C=N/NC(=O)c2ccncc2)[n+]([O-])c2ccccc2[n+]1[O-] | 1.17 µM | 1.32 µM | > 124 µM | > 93 |
| Cc1c(/C=N/NC(=O)c2ccncc2)[n+]([O-])c2cc(Cl)ccc2[n+]1[O-] | 1.04 µM | 1.16 µM | 55.8 µM | 48.1 |
| COc1ccc2c(c1)[n+]([O-])c(/C=N/NC(=O)c1ccncc1)c(C)[n+]2[O-] | < 0.59 µM | 50.6 µM |  |  |
| Cc1ccc2c(c1)[n+]([O-])c(/C=N/NC(=O)c1ccncc1)c(C)[n+]2[O-] | 1.33 µM | 18.2 µM | 52.1 µM | 2.86 |
| Cc1cc2c(cc1C)[n+]([O-])c(/C=N/NC(=O)c1ccncc1)c(C)[n+]2[O-] | 1.22 µM | 2.57 µM | > 124 µM | > 43.5 |
| Cc1c(/C=N/NC(=O)c2ccncc2)[n+]([O-])c2cc(F)ccc2[n+]1[O-] | < 0.58 µM | 23.1 µM | 76.5 µM | 3.31 |
| Cc1c(/C=N/NC(=O)c2ccncc2)[n+]([O-])c2cc(C(F)(F)F)ccc2[n+]1[O-] | 1.5 µM | 3.5 µM | 70 µM | 20 |
| NNC(=O)c1ccncc1 [ISONIAZID] |  | 0.21 µM | > 500 µM | > 20000 |
